Consider one compound from paper PMC8945229, “Development and Biological Characterization of a Novel Selective TrkA Agonist with Neuroprotective Properties against Amyloid Toxicity” (Biomedicines, 2022).

Data set [1] addresses T1, CYP1A2 (Homo sapiens, UniProt P05177).
T1 construct: purchased Thermo Fisher Scientific; host or cells: Baculosomes (microsomes of baculovirus-infected insect cells: own knowledge)
The data set can be described thus: Isozyme-specific CYP450 inhibition (Baculosomes). The class given is in vitro ADME. As to conditions: 1 μM, 60 min. The protocol: (§1) Baculosomes® expressing CYP1A2, CYP2A6, CYP2B6, CYP2C9, CYP2C19, CYP2D6 and CYP3A4 human CYP450 isoenzymes were purchased from Thermo Fisher Scientific (Waltham, MA, USA). All reagents were handled and prepared according to the manufacturer’s protocol. ENT-A013 was tested at 1 μM. Enzymatic activity in the presence of ΕΝΤ-A013 was assessed based on the kinetic model for CYP1A2, CYP2A6, CYP2B6, CYP2C9, CYP2C19, CYP2D6 and CYP3A4 isoforms. Reactions took place in triplicates at 20 °C. Glucose-6-phosphate at 333 mM and glucose-6-phosphate-dehydrogenase at 30 U/mL in 100 mM potassium phosphate, pH 8.0 (regeneration system) converted NADP^+ (10 mM in 100 mM potassium phosphate, pH 8.0) into NADPH to initiate the CYP450 reaction. Upon the addition of the fluorescent substrate, immediately (<2 min), the fluorescence signal was monitored over time at suitable excitation and emission wavelengths by Lionheart FX (BioTek, Winooski, VT, USA) (Table S2). CYP450 inhibition (%) was determined based on the reaction rates (fluorescence intensity changes per unit time). A total of n = 60 measurements per minute were acquired for a total time of t = 60 min. % Inhibition= (1 − X/A) × 100%(1) where: X is the rate observed in the presence of test-compound; A is the rate observed in the presence of negative (solvent, DMSO) control.

In data set [2] the target is T2, CYP2B6 (Homo sapiens, UniProt P20813).
T2 construct: purchased Thermo Fisher Scientific; host or cells: Baculosomes (microsomes of baculovirus-infected insect cells: own knowledge)
Nature of the data set: Isozyme-specific CYP450 inhibition (Baculosomes). The class given is in vitro ADME. As to conditions: 1 μM, 60 min. The method, then:
as §1

In data set [3] the target is T3, CYP2C9 (Homo sapiens, UniProt P11712).
T3 construct: purchased Thermo Fisher Scientific; host or cells: Baculosomes (microsomes of baculovirus-infected insect cells: own knowledge)
Nature of the data set: Isozyme-specific CYP450 inhibition (Baculosomes). As to conditions: 1 μM, 60 min. The data set is classed as in vitro ADME. The method, then:
as §1

The target of data set [4] is T4, CYP2D6 (Homo sapiens, UniProt P10635).
T4 construct: purchased Thermo Fisher Scientific; host or cells: Baculosomes (microsomes of baculovirus-infected insect cells: own knowledge)
Nature of the data set: Isozyme-specific CYP450 inhibition (Baculosomes). The class given is in vitro ADME. As to conditions: 1 μM, 60 min. The method, then: as §1

Data set [5] relates to Erk1/2. The data set can be described thus: Erk1/2 phosphorylation in PC12 cells (Western blot). The class given is cell-based. The method, then:
For immunoprecipitation experiments PC12 or HEK293T, cells were used when at 70–80% confluent. Cells were starved of serum for 4 h and subsequently treated with 100 ng/mL NGF or 500 nM of compound ENT-A013 for 30′. Cells were then lysed in Pierce™ IP Lysis Buffer (87788, Thermo Fischer Scientific, Waltham, MA, USA) containing proteases (539138, Calbiochem, Darmstadt, Germany) and phosphatase inhibitors (524629, Calbiochem, Darmstadt, Germany). Lysates were then immunoprecipitated overnight at 4 °C with TrkA antibody (1:100, 06-574, Sigma-Aldrich, St. Louis, MO, USA) (Table S1) or p75^NTR antibody (1:100, ab6172, Abcam plc., Cambridge, UK) followed by 4 h incubation with protein G-plus agarose beads (sc-2002, Santa Cruz Biotechnology, Inc., Dallas, TX, USA). Beads were then collected, washed 3X with lysis buffer, resuspended in SDS loading buffer and subjected to Western blot against phosphorylated Tyrosine (1:1000, BAM1676, R&D Systems, Inc., Minneapolis, MN, USA) or Traf6 antibody (1:2000, ab33915, Abcam, plc., Cambridge, UK). Whole cell lysates were subjected to Western blot against TrkA (1:1000, 06-574, Sigma-Aldrich, St. Louis, MO, USA), phosphorylated TrkB (1:1000, ABN1381, Sigma-Aldrich, St. Louis, MO, USA), phosphorylated TrkC (1:1000, STJ90960, St John’s Laboratory, Ltd., London, UK), TrkB (1:1000, 07-225-I, Sigma-Aldrich, St. Louis, MO, USA), TrkC (1:1000, C44H5, Cell Signaling Technology, Danvers, MA, USA), p75 (1:1000, 839701, Biolegend, Inc., San Diego, CA, USA), Traf6 (1:2000, ab33915, Abcam, plc., Cambridge, UK) phosphorylated Akt (1:1000, 9721S, Cell Signaling Technology, Danvers, MA, USA), phosphorylated Erk1/2 (1:1000, 9101S, Cell Signaling Technology, Danvers, MA, USA), total Akt (1:1000, 4691S Cell Signaling Technology, Danvers, MA, USA) and total Erk1/2 (1:1000, 4695S, Cell Signaling Technology, Danvers, MA, USA).
(In western blotting, separated proteins are transferred to a membrane and probed.)

For data set [6], the system named is phosphorylated JNK. The data set can be described thus: JNK phosphorylation in primary hippocampal neurons treated with oligomeric Aβ (Western blot). The data set is classed as cell-based, mouse. The note with it: 500 nM every 24 h, 48 h. The method, then: (§2) treated with ENT-A013 (500nM) or Neurotrophin-3 (100ng/ml) for 30’ and then subjected to Western Blot against phosphorylated TrkC, Akt and Erk1/2. […]
(§3) phosphorylated any of those. (D) CellTox assay was performed in NIH-3T3-TrkB cells that were starved from serum and treated with ENT-A013 or BDNF for 24hrs. Quantification (E) […]
(§4) negative control (Serum Free).
(§5) Supplementary Figure S3: Primary DRG neurons were cultured in the presence of ENT-A013 (500nM, supplemented every 48hrs) and a neutralizing antibody against NGF for 5 days and then neurite length was measured by immunostaining against Tuj1 .
(§6) Supplementary Figure S4: Primary hippocampal neurons at 14-16 DIV were treated with oligomeric Aβ and in the presence of ENT-A013 (500nM, supplemented every 24hrs) for 48hrs and then were subjected to Western Blot against phosphorylated JNK. A representative blot […]

For data set [7], the system named is Akt and Erk1/2. Nature of the data set: Akt and Erk1/2 phosphorylation in NIH-3T3 cells transfected with TrkB or TrkC. The note with it: 500 nM, 30′. The class given is cell-based. The method, then: cells were stably transfected with TrkB and treated with ENT-A013 (500nM) or BDNF (500ng/ml) for 30’ and then subjected to Western Blot against phosphorylated TrkB and […]
either TrkB or Akt by ENT-A013. (C) NIH-3T3 cells were stably transfected with TrkC and (1 picture or pasted object on this page, not shown here) […]
as §2, §3, §4, §5, §6

T4 sequence (P10635 whole entry): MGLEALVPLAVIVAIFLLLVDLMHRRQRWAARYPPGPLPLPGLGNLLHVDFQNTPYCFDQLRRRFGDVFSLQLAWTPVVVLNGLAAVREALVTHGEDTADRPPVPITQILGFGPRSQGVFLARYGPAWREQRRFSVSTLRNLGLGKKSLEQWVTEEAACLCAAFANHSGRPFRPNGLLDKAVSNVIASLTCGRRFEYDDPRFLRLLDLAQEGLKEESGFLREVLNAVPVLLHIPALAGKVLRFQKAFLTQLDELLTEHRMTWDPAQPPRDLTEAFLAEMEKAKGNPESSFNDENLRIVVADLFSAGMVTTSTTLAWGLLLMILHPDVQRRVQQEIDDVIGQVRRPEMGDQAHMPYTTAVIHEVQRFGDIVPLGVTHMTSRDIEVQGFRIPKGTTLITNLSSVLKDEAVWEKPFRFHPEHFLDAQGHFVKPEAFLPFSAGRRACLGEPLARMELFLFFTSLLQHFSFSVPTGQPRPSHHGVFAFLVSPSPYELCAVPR
T1 sequence (P05177 2-516 limits assumed): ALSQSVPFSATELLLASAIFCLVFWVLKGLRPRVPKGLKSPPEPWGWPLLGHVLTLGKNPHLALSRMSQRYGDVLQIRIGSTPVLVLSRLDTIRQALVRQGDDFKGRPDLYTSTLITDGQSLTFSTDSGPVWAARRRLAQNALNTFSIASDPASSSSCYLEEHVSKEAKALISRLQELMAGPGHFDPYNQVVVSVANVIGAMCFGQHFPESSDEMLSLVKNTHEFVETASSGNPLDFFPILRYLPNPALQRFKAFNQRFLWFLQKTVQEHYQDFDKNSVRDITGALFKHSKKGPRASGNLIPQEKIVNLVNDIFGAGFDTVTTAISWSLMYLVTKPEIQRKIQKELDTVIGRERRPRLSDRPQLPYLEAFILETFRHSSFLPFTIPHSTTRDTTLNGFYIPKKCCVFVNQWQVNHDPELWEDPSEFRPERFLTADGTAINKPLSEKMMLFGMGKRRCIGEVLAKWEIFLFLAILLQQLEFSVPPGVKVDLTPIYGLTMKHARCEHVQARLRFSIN
T3 sequence (P11712 whole entry): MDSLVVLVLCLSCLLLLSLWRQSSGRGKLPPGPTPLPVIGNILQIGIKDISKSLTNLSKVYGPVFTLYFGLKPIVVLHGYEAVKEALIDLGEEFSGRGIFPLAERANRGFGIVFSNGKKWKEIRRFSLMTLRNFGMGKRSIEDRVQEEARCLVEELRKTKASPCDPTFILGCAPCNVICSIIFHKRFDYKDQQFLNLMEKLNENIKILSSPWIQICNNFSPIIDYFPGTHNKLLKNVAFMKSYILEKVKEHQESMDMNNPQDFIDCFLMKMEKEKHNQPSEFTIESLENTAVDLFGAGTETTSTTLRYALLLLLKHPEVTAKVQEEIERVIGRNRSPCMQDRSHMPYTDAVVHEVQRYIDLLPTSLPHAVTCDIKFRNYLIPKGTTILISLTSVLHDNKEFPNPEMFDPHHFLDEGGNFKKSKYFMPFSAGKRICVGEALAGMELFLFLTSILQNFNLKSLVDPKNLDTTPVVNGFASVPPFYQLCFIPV
T2 sequence (P20813 whole entry): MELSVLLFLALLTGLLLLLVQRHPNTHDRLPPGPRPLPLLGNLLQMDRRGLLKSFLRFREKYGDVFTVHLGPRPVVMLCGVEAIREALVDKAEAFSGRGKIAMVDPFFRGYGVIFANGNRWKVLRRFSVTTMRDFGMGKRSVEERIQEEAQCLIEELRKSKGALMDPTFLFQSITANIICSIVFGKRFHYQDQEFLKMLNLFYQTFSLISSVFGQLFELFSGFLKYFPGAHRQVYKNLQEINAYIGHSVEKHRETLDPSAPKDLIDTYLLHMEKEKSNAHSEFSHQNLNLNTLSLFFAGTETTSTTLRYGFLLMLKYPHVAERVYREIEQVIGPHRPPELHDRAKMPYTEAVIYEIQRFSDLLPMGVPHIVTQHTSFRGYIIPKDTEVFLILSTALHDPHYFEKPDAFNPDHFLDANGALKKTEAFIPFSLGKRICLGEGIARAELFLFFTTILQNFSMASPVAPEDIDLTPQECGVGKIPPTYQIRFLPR

Turning to `CC12CCC(O)CC1=CCC1C2CCC2(C)C1CCC21CC1C=CBr` [ENT-A013, (2′R,3S,17S)-2′-(2-Bromovinyl)-5-Androstene-17,1′-Cyclopropan-3-ol], the “CYP450 inhibition (in words)” value in data set [1] is reported as “weak inhibitor”; in data set [2], “weak inhibitor”; in data set [3], “weak inhibitor”; in data set [4] it was “moderate inhibition”. Also, the “time Erk1/2 phosphorylation is sustained after treatment” value in data set [5] is reported as “up to 1 hr”. Also, the Erk1/2 phosphorylation in data set [5] (500 nM, 30′) is 2.5 ± 0.6 % of control FC. For the same compound, the “phosphorylated JNK levels (in words)” value in data set [6] is listed as “reduced phosphorylated JNK levels similar to untreated control cells”. Also, the “Akt phosphorylation (in words)” value in data set [7] (NIH-3T3 TrkB cells) is given as “no significant difference in the phosphorylation”. The “Akt and Erk1/2 phosphorylation (in words)” value in data set [7] (NIH-3T3 TrkC cells) is listed as “failed to”.
